Data on one compound can be found in publication PMC4298241 (ChemMedChem, 2014).

One data set concerns T. brucei (BSF). Put plainly: Alamar Blue viability test, T. brucei bloodstream form. The format is cell-based. The note with it: Trypanosoma brucei.
In data set [1] the test system is KB 3-1 cervix cancer cell line. To be noted: read-out: cytotoxicity IC50; cited from earlier work.

Molecules are shown by their SMILES. Like-named read-outs stand apart in the source and are kept apart here.

As for `CCCCCCC1CCCC(C2CCC([C@H]3CC[C@H]([C@H](O)CCCCCCCCCCCCC4=C[C@H](C)OC4=O)O3)O2)O1` (stereo partly drawn) [Compound 6, chamuvarinin], the values for the EC50 in the data set on T. brucei (BSF) (read-out: T.brucei(BSF) EC50) and with T. brucei (BSF) (read-out: pEC50 (converted)) were 1400 ± 100 nM and 1380 nM, respectively. The IC50 in data set [1] is 0.8 nM.

The IC50 is the concentration that gives 50% inhibition.
